Consider 11 compounds from US10807968B2, “Substituted 2-(het)arylimidazolylcarboxyamides as pesticides” (Bayer CropScience Aktiengesellschaft, priority 2016, dated 2020).

The nature of data set [1]: log P determination by HPLC on reversed-phase (C18) columns, OECD Guideline 117. It is filed as physicochemical. In a few lines: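 Reversed-phase C18 HPLC per OECD 117, LC-MS with a linear 10% to 95% acetonitrile gradient. Acidic method at pH 2.7 with 0.1% formic acid; neutral method at pH 7.8 with 0.001 M ammonium hydrogencarbonate.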
In data set [2] the test system is Myzus persicae. Kind of data set: Myzus persicae - oral test. It is filed as in vivo. The following applies: after 5 days; for efficacy in % (aphids killed): 20 ppm; for pest or weed control at 20 ppm: Myzus persicae, 120 h, read-out: efficacy in % (aphids killed). As to the method: Solvent: 100 parts by weight of acetone
Subsequently, the plates are sealed with parafilm, which a mixed population of green peach aphids (Myzus persicae) within a second microtitre plate is able to puncture and imbibe the solution through it.
After 5 days, the efficacy in % is determined. 100% means that all the aphids have been killed; 0% means that no aphids have been killed.

The subject of data set [3] is Myzus persicae. Kind of data set: Myzus persicae - spray test (bell pepper plants). It is filed as in vivo. The following applies: 20 ppm, after 6 days. As to the method:
Myzus persicae—Spray Test Solvent: 14 parts by weight of dimethylformamide Emulsifier: alkylaryl polyglycol ether […] To produce further test concentrations, the formulation is diluted with emulsifier-containing water. If the addition of ammonium salts or/and penetrants is required, these are each added in a concentration of 1000 ppm to the formulation solution. Bell pepper plants (Capsicum annuum) severely infested with the green peach aphid (Myzus persicae) are treated by spraying with the active compound formulation in the desired concentration.

A further data set relates to Tetranychus urticae. Put plainly: Tetranychus urticae - spray test, OP-resistant. The class given is in vivo. The following applies: 500 g/ha, after 6 days, bean leaf discs. As to the method: Tetranychus Urticae—Spray Test, OP-Resistant
Solvent: 78.0 parts by weight of acetone • • 1.5 parts by weight of dimethylformamide
Emulsifier: alkylaryl polyglycol ether
To produce a suitable preparation of active compound, 1 part by weight of active compound is dissolved using the specified parts by weight of solvent and made up with water containing an emulsifier concentration of 1000 ppm until the desired concentration is attained. To produce further test concentrations, the formulation is diluted with emulsifier-containing water.
Discs of bean leaves (Phaseolus vulgaris) infested with all stages of the greenhouse red spider mite (Tetranychus urticae) are sprayed with an active compound formulation of the desired concentration.
After 6 days, the efficacy in % is determined. 100% means that all the spider mites have been killed; 0% means that no spider mites have been killed.

Data set [4] deals with Myzus persicae. Kind of data set: Myzus persicae - spray test (Chinese cabbage leaf discs). The following applies: 500 g/ha, after 6 days. It is filed as in vivo. In a few lines: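 Leaf discs of Chinese cabbage carrying all aphid stages sprayed with compound formulated in acetone/DMF and water with 1000 ppm alkylaryl polyglycol ether emulsifier. Kill rate scored after 6 days as % efficacy (100% all aphids dead, 0% none).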

A further data set concerns Meloidogyne incognita. Kind of data set: Meloidogyne incognita test. The class given is in vivo. The following applies: 20 ppm, after 14 days, lettuce in sand. As to the method:
Meloidogyne Incognita Test
Solvent: 125.0 parts by weight of acetone
To produce a suitable active compound formulation, 1 part by weight of active compound is mixed with the stated amount of solvent and the concentrate is diluted with water to the desired concentration.
Vessels are filled with sand, active compound solution, an egg/larvae suspension of the southern root-knot nematode (Meloidogyne incognita) and lettuce seeds. The lettuce seeds germinate and the plants develop. The galls develop on the roots.
After 14 days, the nematicidal efficacy in % is determined by the formation of galls. 100% means that no galls were found; 0% means that the number of galls on the treated plants corresponds to the untreated control.

Setting [5] is: HPLC, acidic range pH 2.7, 0.1% aqueous formic acid/acetonitrile.
Where [6] appears, read: HPLC, neutral range pH 7.8, 0.001 molar aqueous ammonium hydrogencarbonate/acetonitrile.

Read-outs that look alike come from different tables or passages of the source.

On to `CN(C(=O)c1cnc(-c2ccc(F)c(COC(=O)C3CC3)c2)n1C)c1cccnc1` [Example 46], for which the logp-acidic in data set [1] (pH 2.7) is listed as 0.73. Also, in data set [1] (pH 7.8), the logp-neutral was 1.35. In addition, the “efficacy in % (aphids killed)” value with Myzus persicae [2] is 100%. Further, the “kill in % (aphids killed)” value with Myzus persicae [3] stood at 95%.

Compound `CN(C(=O)c1cnc(-c2cccc([S+]([O-])C(F)(F)F)c2)n1C)c1cccnc1` (stereo not shown) [Example 49] had a logp-acidic in data set [1] (pH 2.7) of 1.28. The same compound gave a logp-neutral in data set [1] (pH 7.8) of 1.62. Moreover, the “efficacy in % (aphids killed)” value in the data set with Myzus persicae [2] is listed as 100%. In addition, the “kill in % (aphids killed)” value with Myzus persicae [3] turned out to be 100%.

With `CN(C(=O)c1cnc(-c2ccc(F)c(C(F)(F)F)c2)n1C)c1cccnc1` [Example 50], the chromatographic logP in data set [1] (reversed-phase (C18) HPLC column, pH 2.7, HPLC, acidic range pH 2.7, 0.1% aqueous formic acid/acetonitrile, read-out: logp-acidic) stood at 1.72; in data set [1] (reversed-phase (C18) HPLC column, pH 7.8, HPLC, neutral range pH 7.8, 0.001 molar aqueous ammonium hydrogencarbonate/acetonitrile, read-out: logp-neutral), 2.08. In the data set with Myzus persicae [2], the pest or weed control at 20 ppm came out at 100%. Moreover, the “kill in % (aphids killed)” value in the data set on Myzus persicae [3] came to 100%.

`CN(C(=O)c1cnc(-c2cc(Cl)cc(C(F)(F)F)c2)n1C)c1cccnc1` [Example 51] registered a logp-acidic in data set [1] (pH 2.7) of 2.17. Moreover, the logp-neutral in data set [1] (pH 7.8) is on record as 2.43. For the same compound, the “efficacy in % (aphids killed)” value in the data set on Myzus persicae [2] was determined as 100%. Besides, in the data set on Myzus persicae [3], the “kill in % (aphids killed)” value came out at 100%.

Regarding `CN(C(=O)c1cnc(-c2cccc(C(F)(F)F)c2)n1C)c1cccnc1` [Example 52], in the data set with Tetranychus urticae, the “efficacy in % (spider mites killed)” value is given as 90%. For the same compound, the logp-acidic in data set [1] (pH 2.7) is 1.64. In addition, the logp-neutral in data set [1] (pH 7.8) worked out at 1.99. Further, the “efficacy in % (aphids killed)” value with Myzus persicae [2] and in the data set on Myzus persicae [4] was 100% throughout.

For the compound `CN(C(=O)c1cnc(-c2cccc(C(F)(F)C(F)(F)F)c2)n1C)c1cccnc1` [Example 57], the “efficacy in % (spider mites killed)” value with Tetranychus urticae amounted to 90%. Besides, in data set [1] (pH 2.7), the logp-acidic is 2.09. The compound also returned a logp-neutral in data set [1] (pH 7.8) of 2.40. Also, the “efficacy in % (aphids killed)” value with Myzus persicae [2] and in the data set with Myzus persicae [4] was 100% each time.

Take `CN(C(=O)c1cnc(-c2cc3ccccc3o2)n1C)c1cccnc1` [Example 70]: the chromatographic logP in data set [1] (HPLC, acidic range pH 2.7, 0.1% aqueous formic acid/acetonitrile, read-out: logp-acidic) worked out at 1.63; in data set [1] (HPLC, neutral range pH 7.8, 0.001 molar aqueous ammonium hydrogencarbonate/acetonitrile, read-out: logp-neutral), 1.87. Besides, the pest or weed control at 20 ppm in the data set on Myzus persicae [2] was 100%. Also, in the data set with Myzus persicae [3], the “kill in % (aphids killed)” value was found to be 95%.

For `CCOC(=O)c1cc(-c2ncc(C(=O)N(C)c3cccnc3)n2C)on1` [Example 72], the “efficacy in % (spider mites killed)” value in the data set with Tetranychus urticae is reported as 90%. For the same compound, in data set [1] (pH 2.7), the logp-acidic worked out at 1.42. The compound also displayed a logp-neutral in data set [1] (pH 7.8) of 1.51. Further, in the data set on Myzus persicae [2], the “efficacy in % (aphids killed)” value was 100%.

Compound `CCN(C(=O)c1cnc(-c2ccccn2)n1C)c1cccnc1` [Example 77] displayed a logp-acidic in data set [1] (setting [5]) of 0.97. For the same compound, the logp-neutral in data set [1] (setting [6]) amounted to 1.39. The “efficacy in % (aphids killed)” value with Myzus persicae [2] and with Myzus persicae [4] was 100% throughout. Besides, the “kill in % (aphids killed)” value in the data set on Myzus persicae [3] is reported as 100%.

For the compound `CN(C(=O)c1cnc(-c2cccc3c2OCO3)n1C)c1cccnc1` [Example 83], the logp-acidic in data set [1] (setting [5]) is reported as 0.9. The same compound gave a logp-neutral in data set [1] (setting [6]) of 1.44. Further, the “efficacy in % (aphids killed)” value in the data set on Myzus persicae [2] was 100%; in the data set with Myzus persicae [4], 90%. In addition, the “nematicidal efficacy in % (formation of galls)” value in the data set with Meloidogyne incognita was determined as 100%.

Take `CC(C)Oc1ccc(-c2ncc(C(=O)N(C)c3cccnc3)n2C)cc1C#N` [Example 105]: the “efficacy in % (spider mites killed)” value in the data set with Tetranychus urticae came to 100%. In data set [1] (pH 2.7), this compound displayed a logp-acidic of 1.55. For the same compound, in data set [1] (pH 7.8), the logp-neutral worked out at 1.87. Moreover, the entries for the “efficacy in % (aphids killed)” value in the data set with Myzus persicae [2] and with Myzus persicae [4] were 100% and 90%, respectively.
